From patent publication US7960339B2, “Antimicrobial peptides” (Österreichische Akademie der Wissenschaften, priority 2006, dated 2011)
Read-outs that look alike come from different tables or passages of the source. Square brackets hold non-standard residues; d marks the D form. Ends that are not written are not given here. Peptide text beside a SMILES is read from it. * marks the point of attachment. Octanoyl(6-Me) = CCC(C)CCCCC(=O)*; X1 = CCCCC(CC)C(=O)*

Assays:
LPS S. Minnesota Re595 = experiment: Endpoint LAL activity (Limulus gel-clotting test), inhibition of lipid A-induced LAL enzymatic cascade; type: biochemical; conditions: sensibility 0.125 EU/ml, peptide:LPS 100:1 (w/w), minimum of 6 tests in triplicate
Procedure: (§1) The principle of lipid A-induced pro-inflammatory cytokine activity leading to hemorrhagic dermonecrosis (classical Shwartzmann reaction) was tested in rabbit, an animal model very close to humans in terms of sensitivity to LPS activity, and was compared to the inhibition of the lipid A-induced LAL enzymatic cascade activation leading to clot. Thereby, New Zealand White rabbits were injected in the shaved dorsal region with S. minnesota Re595 lipid A alone or with peptide 1:100 (w/w) (5 μg in 0.2 ml saline buffer; route i.d.). […] Polymyxin B (PmB) was used as a control.

LPS Re595 = experiment: Local Shwartzmann reaction in rabbit (lipid A-induced hemorrhagic dermonecrosis); type: in vivo, New Zealand White rabbits; conditions: i.d. injection in shaved dorsal region; open necrosis observed after 72-96 hours; minimum 3 injections in minimum 3 rabbits
Procedure: as §1

C. neoformans ATCC 32045 = type: cell-based
Procedure, shortened: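 Fungal inoculum was about 1×10^5 to 5×10^5 CFU/ml in 2×YM broth, added to peptides dispensed at 1 mg/ml to 1 μg/ml in twofold serial dilutions. After 72 hrs at 26° C, relative growth was read as OD620. IC50 values came from sigmoidal curve fitting.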

average IC50 (C. neoformans ATCC 32045; ATCC 32045, 72 h) | average MIC (C. neoformans ATCC 32045; ATCC 32045, 72 h) | Molecule | Endpoint LAL activity peptide: LPS Re595 100:1 (w/w) (LPS S. Minnesota Re595) | Local Shwartzmann reaction in rabbit peptide: LPS Re595 100:1 (w/w) (LPS Re595) | average IC50 (C. neoformans ATCC 32045; 50% growth inhibition, OD620, 72 hrs at 26° C., 2×YM broth) | average MIC (C. neoformans ATCC 32045; lowest concentration that resulted in 2% growth, OD620, 72 hrs at 26° C., 2×YM broth)
 |  | CC[C@H](C)[C@@H]1NC(=O)[C@H](CCCNC(=N)N)NC(=O)[C@H]([C@@H](C)CC)NC(=O)[C@H](CCCNC(=N)N)NC(=O)[C@H](Cc2c[nH]c3ccccc23)NC(=O)[C@H](Cc2ccccc2)NC(=O)[C@H](CCCNC(=N)N)NC(=O)[C@H](CCCNC(=N)N)NC1=O [VF50, cyclo FWRIRIRR-NH2] (cyclo(FWRIRIRR)) | NEGATIVE | NEGATIVE |  | 
 |  | RFWQRNIRIRR-NH2 [Peptide P2-18] | NEGATIVE | NEGATIVE |  | 
 |  | RWQRNIRIRR-NH2 [Peptide P2-19] | NEGATIVE | NEGATIVE |  | 
 |  | FwRNIRIRR-NH2 (F[dW]RNIRIRR-NH2; N-terminus assumed; SMILES CC[C@H](C)[C@H](NC(=O)[C@H](CCCNC(=N)N)NC(=O)[C@@H](NC(=O)[C@H](CC(N)=O)NC(=O)[C@H](CCCNC(=N)N)NC(=O)[C@@H](Cc1c[nH]c2ccccc12)NC(=O)[C@@H](N)Cc1ccccc1)[C@@H](C)CC)C(=O)N[C@@H](CCCNC(=N)N)C(=O)N[C@@H](CCCNC(=N)N)C(N)=O) [Peptide P2-11] | NEGATIVE | NEGATIVE |  | 
 |  | FWQRNYRKVR-NH2 [Peptide P1-39] | NEGATIVE | NEGATIVE |  | 
 |  | CC[C@H](C)[C@H](NC(=O)[C@H](CCCNC(=N)N)NC(=O)[C@H](CCCNC(=N)N)NC(=O)[C@H](CCC(N)=O)NC(=O)[C@H](Cc1c[nH]c2ccccc12)NC(=O)[C@@H](N)Cc1ccccc1)C(=O)N[C@@H](CCCNC(=N)N)C(=O)N[C@@H](CCCNC(=N)N)C(=O)N[C@@H](Cc1c[nH]c2ccccc12)C(=O)N[C@@H](CCCNC(=N)N)C(=O)N[C@@H](CCCNC(=N)N)C(N)=O [VS1-18, FWQRRIRRWRR-NH2] (H-FWQRRIRRWRR-NH2; N-terminus assumed) | NEGATIVE | NEGATIVE | 7 µg/mL | 32 µg/mL
2 µg/mL | 8 µg/mL | CCC(C)CCCCC(=O)N[C@@H](CCCNC(=N)N)C(=O)N[C@@H](Cc1c[nH]c2ccccc12)C(=O)N[C@@H](CCCCN)C(=O)N[C@@H](CCCNC(=N)N)C(=O)N[C@H](C(=O)N[C@@H](CC(N)=O)C(=O)N[C@@H](CCCNC(=N)N)C(=O)N[C@@H](CCC(N)=O)C(=O)N[C@@H](Cc1c[nH]c2ccccc12)C(=O)N[C@@H](Cc1ccccc1)C(N)=O)[C@@H](C)CC (stereo partly shown) [VS1-48, 6-methyloctanoyl RWKRINRQWF-NH2] ({Octanoyl(6-Me)}-RWKRINRQWF-NH2) |  |  |  | 
3 µg/mL | 8 µg/mL | CC[C@H](C)[C@H](NC(=O)[C@H](CC(N)=O)NC(=O)[C@H](CCCNC(=N)N)NC(=O)[C@H](CCC(N)=O)NC(=O)[C@H](Cc1c[nH]c2ccccc12)NC(=O)[C@H](Cc1ccccc1)NC(=O)[C@@H]1CCCN1)C(=O)N[C@@H](CCCNC(=N)N)C(=O)N[C@@H](CCCCN)C(=O)N[C@@H](Cc1c[nH]c2ccccc12)C(=O)N[C@@H](CCCNC(=N)N)C(N)=O [VS1-19, PFWQRNIRKWR-NH2] (H-PFWQRNIRKWR-NH2; N-terminus assumed) |  |  |  | 
6 µg/mL | 16 µg/mL | CCCCC(CC)C(=O)N[C@@H](Cc1ccccc1)C(=O)N[C@@H](Cc1c[nH]c2ccccc12)C(=O)N[C@@H](CCCNC(=N)N)C(=O)N[C@@H](CCCNC(=N)N)C(=O)N[C@@H](Cc1ccccc1)C(=O)N[C@@H](Cc1c[nH]c2ccccc12)C(=O)N[C@@H](CCCNC(=N)N)C(=O)N[C@@H](CCCNC(=N)N)C(N)=O (stereo partly shown) [VS1-61, 2-ethylhexanoyl FWRRFWRR-NH2] (X1-FWRRFWRR-NH2) |  |  |  | 
4 µg/mL | 8 µg/mL | CCCCC(CC)C(=O)N[C@@H](CCCNC(=N)N)C(=O)N[C@@H](Cc1c[nH]c2ccccc12)C(=O)N[C@@H](CCCCN)C(=O)N[C@@H](CCCNC(=N)N)C(=O)N[C@H](C(=O)N[C@@H](CC(N)=O)C(=O)N[C@@H](CCCNC(=N)N)C(=O)N[C@@H](CCC(N)=O)C(=O)N[C@@H](Cc1c[nH]c2ccccc12)C(=O)N[C@@H](Cc1ccccc1)C(N)=O)[C@@H](C)CC (stereo partly shown) [VS1-46, 2-ethylhexanoyl RWKRINRQWF-NH2] (X1-RWKRINRQWF-NH2) |  |  |  | 
